Experimental data: ChEMBL document CHEMBL1201862, “PubChem BioAssay data set” (2004)
Active and inactive are the calls of the source.

Legend:
[1] = reduction of Shn3 3'UTR-driven luciferase in osteoblasts – cell-based, Clone20 osteoblasts, firefly luciferase, cherry-picked, dose response (AID 624132); type: functional;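 also: firefly luciferase luminescence from reporter carrying the Shn3 3'UTR in osteoblasts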
[2] = alpha-synuclein stem-loop luciferase translation blockers – H4 neuroglioma cells, luminescence, confirmation (AID 1988); type: functional, cell-based
[3] = viability loss in CEM21 cells – cell-based, CellTiter-Glo luminescence, cherry-picked, cytotoxicity control for viral fusion inhibitor project, dose response (AID 652042); type: functional;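 also: potency for signal decrease meaning cytotoxicity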
[4] = off-target signal loss in HeLa-CEM21 co-culture – HeLa F-luc CTL cells, cherry-picked, counter-screen for HIV-1 Env fusion inhibitor project, dose response (AID 652040); type: functional, cell-based;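 also: potency for signal decrease marking cytotoxic or nonspecific inhibition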
[5] = luciferase reporter signal suppression in cells – H4 neuroglioma cells, luminescence, dose response (AID 1990); type: functional, cell-based
[6] = blockers of HIV-1 ZM109 envelope-driven cell-cell fusion – HeLa effector, CEM target cells, luciferase, cherry-pick, dose response (AID 652058); type: functional, cell-based;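 also: luciferase signal from HIV-1 Env mediated cell-cell fusion of effector and target cells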
Paired box protein Pax-8 = Paired box protein Pax-8 (Homo sapiens, UniProt Q06710); experiment: PAX8 transcriptional activity inhibition in RMG-I – RMG-I cells, luciferase, cherry-pick, dose response (AID 687027); type: functional, cell-based;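 also: luciferase reporter driven by Pax8 target thyroperoxidase promoter measured by SteadyGlo luminescence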
Jurkat = experiment: blockers of NF-kB activation in T cells – Jurkat, luciferase reporter, luminescence, B- and T-cell, dose response (AID 489004); type: functional, cell-based; conditions: Homo sapiens;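 also: NF-kB luciferase reporter Jurkat cells stimulated with PMA plus ionomycin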
[7] = target: T1, Heat shock factor protein 1 (Mus musculus, UniProt P38532); experiment: decrease of HSF1-responsive luciferase luminescence – cell-based, NIH3T3, dose retest, confirmation (AID 2382); type: functional;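 also: NIH3T3 fibroblasts with HSF1-driven luciferase reporter stressed by proteasome inhibitor MG132; luminescence from HSF1-driven luciferase expression after 8 hours of MG132 stress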
T1 sequence (P38532 whole entry): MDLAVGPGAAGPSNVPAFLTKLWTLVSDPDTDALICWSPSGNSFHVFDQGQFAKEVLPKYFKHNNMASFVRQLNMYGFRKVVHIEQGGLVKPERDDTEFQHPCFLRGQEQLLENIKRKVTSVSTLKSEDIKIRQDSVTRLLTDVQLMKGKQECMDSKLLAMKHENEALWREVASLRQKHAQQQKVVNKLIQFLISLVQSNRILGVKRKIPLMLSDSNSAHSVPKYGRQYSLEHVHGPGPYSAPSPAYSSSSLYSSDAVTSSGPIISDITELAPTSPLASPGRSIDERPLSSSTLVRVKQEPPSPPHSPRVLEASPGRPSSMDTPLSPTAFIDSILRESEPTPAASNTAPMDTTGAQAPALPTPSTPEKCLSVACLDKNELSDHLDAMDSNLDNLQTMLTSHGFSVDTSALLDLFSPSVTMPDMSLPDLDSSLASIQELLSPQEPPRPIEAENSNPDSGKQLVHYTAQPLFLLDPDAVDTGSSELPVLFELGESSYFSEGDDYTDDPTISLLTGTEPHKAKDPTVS

[8] = target: Cyclin-dependent kinase 5/CDK5 activator 1 (Homo sapiens, UniProt Q00535); experiment: blockade of human CDK5 activity – biochemical, cherry-picked samples, set 2, dose response (AID 504545)
[9] = HIV-1 AD8 envelope cell-cell fusion blockers – cherry-pick, dose response (AID 652062); type: functional, cell-based;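 also: luciferase signal from cell-cell fusion driven by HIV-1 clade B AD8 Env; potency is for inhibitors of fusion seen as a drop in luminescence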
[10] = Shn3 transcript knock-down in Clone20 cells – cell-based, qPCR, cherry-pick, dose response (AID 743415); type: functional
[11] = blockers of HIV-1 envelope-mediated cell-cell fusion – cherry-pick, dose response (AID 652057); type: functional, cell-based
[12] = HEK-293T viability loss, compound-treated – cell-based, uHTS hits, cytotoxicity control for B/T-cell NF-kB inhibitor project, dose response (AID 489019); type: functional;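 also: IC50 reflects cytotoxicity as loss of cell viability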
[13] = target: Latent membrane protein 1 (Human herpesvirus 4 (strain B95-8), UniProt P03230); experiment: LMP1 TES1 pathway selectivity over dsRED control – imaging, HEK293T, dual-color eGFP/dsRED, cherry-picks, selectivity assay for LMP1 NF-kB inhibitor project, dose response (AID 588398); type: functional, cell-based
[14] = Shn3 3'UTR reporter signal decrease – cell-based, Clone20 osteoblasts, firefly luciferase, cherry-pick, set 2, Schnurri-3 inhibitor project, dose response (AID 720490); type: functional;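 also: actives lower the luminescence signal as inhibitors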
[15] = Luminescence Cell-Based Dose Response HTS to Identify Inhibitors of 5'UTR Stem-Loop Driven Prion Protein mRNA Translation in H4 Neuroglioblastoma Cells. [Related pubchem assays: 1827 (Project Summary), 1813 (Primary HTS)]; type: functional
[16] = target: 5-hydroxytryptamine receptor 5A (Homo sapiens, UniProt P47898); experiment: Counterscreen for agonists of OPRM1-OPRD1 heterodimerization: luminescence-based cell-based high throughput dose response assay to identify agonists of 5-hydroxytryptamine (serotonin) 5A receptor (HTR5A). [Related pubchem assays (depositor defined):AID504326, AID504355, AID504692, AID504904, AID504905]; type: functional
[17] = target: Delta-type opioid receptor (Homo sapiens, UniProt P41143); experiment: Counterscreen for agonists of heterodimerization of the mu 1 (OPRM1) and delta 1 (OPRD1) opioid receptors: Luminescence-based cell-based high throughput dose response assay to identify agonists of OPRD1 homodimerization. [Related pubchem assays (depositor defined):AID504326, AID504355, AID504692, AID504904, AID504905]; type: functional
Mu-type opioid receptor = Mu-type opioid receptor (Homo sapiens, UniProt P35372); experiment: Counterscreen for agonists of heterodimerization of the mu 1 (OPRM1) and delta 1 (OPRD1) opioid receptors: Luminescence-based cell-based high throughput dose response assay to identify agonists of OPRM1 homodimerization.; type: functional;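 also: U2OS cells expressing OPRM1 and beta-arrestin as split beta-galactosidase partners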
Escherichia coli = experiment: microbe, parasite or virus in culture
[18] = target: 5-hydroxytryptamine receptor 1A (Homo sapiens, UniProt P08908); type: functional
[19] = target: T2, Microphthalmia-associated transcription factor (Homo sapiens, UniProt O75030); experiment: reducers of TRPM1 reporter luminescence, concentration series – cell-based, SK-MEL-5, cherry-picked, set 3, MITF inhibitor project, dose response (AID 493073); type: functional;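 also: SK-MEL-5 melanoma cells with luciferase driven by the MITF target TRPM1 promoter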
T2 sequence (O75030 whole entry): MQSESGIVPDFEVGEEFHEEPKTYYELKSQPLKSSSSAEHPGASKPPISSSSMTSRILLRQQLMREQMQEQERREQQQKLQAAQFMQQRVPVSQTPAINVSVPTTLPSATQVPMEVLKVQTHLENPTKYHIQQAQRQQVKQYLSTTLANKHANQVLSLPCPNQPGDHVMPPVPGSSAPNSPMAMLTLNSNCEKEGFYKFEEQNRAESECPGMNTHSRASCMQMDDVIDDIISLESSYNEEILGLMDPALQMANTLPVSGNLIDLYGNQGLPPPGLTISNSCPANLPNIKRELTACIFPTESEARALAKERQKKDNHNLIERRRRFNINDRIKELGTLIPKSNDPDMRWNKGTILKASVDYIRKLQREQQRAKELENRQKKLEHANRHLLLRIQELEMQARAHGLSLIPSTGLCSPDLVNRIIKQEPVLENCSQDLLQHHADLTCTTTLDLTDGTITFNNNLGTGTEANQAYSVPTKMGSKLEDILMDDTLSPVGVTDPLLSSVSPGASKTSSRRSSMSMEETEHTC

[20] = target: Glucose-6-phosphate 1-dehydrogenase (Homo sapiens, UniProt P11413); experiment: inhibition of Homo sapiens G6PD, dose series – biochemical, fluorescence, selectivity assay for P. falciparum G6PD inhibitor project, dose response (AID 504792); type: functional
[21] = target: Heat shock protein HSP 90-alpha (Homo sapiens, UniProt P07900); type: functional, organism-based
CHO = CHO cell viability loss, potency – luminescence, cytotoxicity control for TLR9-MyD88 binding inhibitor project, dose response (AID 588339); type: functional, cell-based, hamster; conditions: Cricetulus griseus;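 also: CHO cells stably coexpressing TLR9 and MyD88 fusions from primary screen; compound exposure lasted 48 hours before viability readout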
A-375 = experiment: proliferation inhibition in MITF-low A375 cells – cell-based, cherry-pick samples, set 2, counter-screen for MITF modulator project, dose response (AID 540335); type: functional; conditions: Homo sapiens
Vero [22] = experiment: cells; type: functional, cell-based; conditions: Chlorocebus sabaeus
HEK293 = experiment: EBV LMP1 TES2 canonical NF-kB signalling blockers – cell-based, HEK293, luciferase, cherry-pick, dose response (AID 588343); type: functional; conditions: Homo sapiens
Vero [23] = experiment: cells; type: functional; conditions: Chlorocebus sabaeus
Nonstructural protein 1 = Nonstructural protein 1 (Influenza A virus, UniProt Q194T2); type: functional, Influenza A virus (A/California/07/2009(H1N1))
[24] = target: Beta-2 adrenergic receptor (Homo sapiens, UniProt P07550); experiment: ADRB2 activation measured by internalization – cell-based, FAP fluorogen, flow cytometry, cherry pick 1, dose response (AID 588763); type: functional
Sequence of Beta-2 adrenergic receptor (P07550 whole entry): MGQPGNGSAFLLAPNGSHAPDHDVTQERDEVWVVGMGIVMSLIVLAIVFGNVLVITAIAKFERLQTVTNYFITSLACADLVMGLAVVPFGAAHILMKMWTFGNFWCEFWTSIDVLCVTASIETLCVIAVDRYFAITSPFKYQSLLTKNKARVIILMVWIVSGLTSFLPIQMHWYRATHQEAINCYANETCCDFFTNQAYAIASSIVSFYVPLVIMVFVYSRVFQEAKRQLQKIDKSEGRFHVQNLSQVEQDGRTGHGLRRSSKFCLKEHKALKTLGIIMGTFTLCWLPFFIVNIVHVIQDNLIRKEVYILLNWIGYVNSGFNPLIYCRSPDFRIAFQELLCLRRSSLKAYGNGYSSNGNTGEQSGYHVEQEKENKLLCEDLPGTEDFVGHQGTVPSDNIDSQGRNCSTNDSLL

Sequence of Latent membrane protein 1 (P03230 whole entry): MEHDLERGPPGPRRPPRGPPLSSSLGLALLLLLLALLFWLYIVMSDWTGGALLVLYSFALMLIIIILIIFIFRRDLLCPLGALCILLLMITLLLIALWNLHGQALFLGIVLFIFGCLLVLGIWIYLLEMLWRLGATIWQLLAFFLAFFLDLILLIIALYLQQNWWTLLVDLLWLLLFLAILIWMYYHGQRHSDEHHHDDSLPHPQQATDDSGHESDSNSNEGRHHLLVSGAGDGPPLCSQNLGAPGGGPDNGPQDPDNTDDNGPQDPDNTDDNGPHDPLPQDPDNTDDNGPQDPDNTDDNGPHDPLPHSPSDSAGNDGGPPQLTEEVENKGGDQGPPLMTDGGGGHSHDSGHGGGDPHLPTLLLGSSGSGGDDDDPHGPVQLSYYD
Sequence of Glucose-6-phosphate 1-dehydrogenase (P11413 whole entry): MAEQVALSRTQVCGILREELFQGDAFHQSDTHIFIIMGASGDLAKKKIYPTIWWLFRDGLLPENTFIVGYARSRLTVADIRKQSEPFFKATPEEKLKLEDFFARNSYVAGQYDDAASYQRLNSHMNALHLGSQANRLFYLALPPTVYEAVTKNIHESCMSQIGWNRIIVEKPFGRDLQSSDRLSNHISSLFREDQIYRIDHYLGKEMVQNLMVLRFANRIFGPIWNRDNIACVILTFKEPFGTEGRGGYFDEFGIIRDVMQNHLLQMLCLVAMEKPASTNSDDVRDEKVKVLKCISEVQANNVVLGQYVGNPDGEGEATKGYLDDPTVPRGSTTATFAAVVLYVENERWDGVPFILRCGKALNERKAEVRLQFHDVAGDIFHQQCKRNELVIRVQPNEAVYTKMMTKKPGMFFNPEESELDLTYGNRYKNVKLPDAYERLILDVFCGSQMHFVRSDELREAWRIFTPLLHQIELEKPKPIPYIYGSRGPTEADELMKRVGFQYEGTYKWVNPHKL
Sequence of Mu-type opioid receptor (P35372 whole entry): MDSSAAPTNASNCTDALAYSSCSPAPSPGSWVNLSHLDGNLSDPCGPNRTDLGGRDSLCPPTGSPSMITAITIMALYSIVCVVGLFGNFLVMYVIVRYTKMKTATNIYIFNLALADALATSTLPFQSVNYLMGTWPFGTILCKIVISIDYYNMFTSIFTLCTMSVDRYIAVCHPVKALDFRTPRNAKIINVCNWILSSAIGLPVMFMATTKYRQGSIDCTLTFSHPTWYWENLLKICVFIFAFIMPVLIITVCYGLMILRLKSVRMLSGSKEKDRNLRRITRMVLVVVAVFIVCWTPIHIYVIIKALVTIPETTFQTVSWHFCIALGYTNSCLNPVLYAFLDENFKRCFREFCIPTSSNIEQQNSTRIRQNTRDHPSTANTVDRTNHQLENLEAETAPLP
Sequence of 5-hydroxytryptamine receptor 5A (P47898 whole entry): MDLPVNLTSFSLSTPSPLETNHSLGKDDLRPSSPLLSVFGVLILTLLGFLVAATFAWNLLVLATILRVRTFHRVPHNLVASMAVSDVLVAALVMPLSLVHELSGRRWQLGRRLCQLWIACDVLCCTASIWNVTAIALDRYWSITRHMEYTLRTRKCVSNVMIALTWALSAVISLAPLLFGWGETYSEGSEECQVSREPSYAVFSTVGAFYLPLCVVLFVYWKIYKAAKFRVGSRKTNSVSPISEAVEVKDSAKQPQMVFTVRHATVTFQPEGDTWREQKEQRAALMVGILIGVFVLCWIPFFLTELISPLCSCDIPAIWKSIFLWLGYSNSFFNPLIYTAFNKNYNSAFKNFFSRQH
Sequence of Paired box protein Pax-8 (Q06710 whole entry): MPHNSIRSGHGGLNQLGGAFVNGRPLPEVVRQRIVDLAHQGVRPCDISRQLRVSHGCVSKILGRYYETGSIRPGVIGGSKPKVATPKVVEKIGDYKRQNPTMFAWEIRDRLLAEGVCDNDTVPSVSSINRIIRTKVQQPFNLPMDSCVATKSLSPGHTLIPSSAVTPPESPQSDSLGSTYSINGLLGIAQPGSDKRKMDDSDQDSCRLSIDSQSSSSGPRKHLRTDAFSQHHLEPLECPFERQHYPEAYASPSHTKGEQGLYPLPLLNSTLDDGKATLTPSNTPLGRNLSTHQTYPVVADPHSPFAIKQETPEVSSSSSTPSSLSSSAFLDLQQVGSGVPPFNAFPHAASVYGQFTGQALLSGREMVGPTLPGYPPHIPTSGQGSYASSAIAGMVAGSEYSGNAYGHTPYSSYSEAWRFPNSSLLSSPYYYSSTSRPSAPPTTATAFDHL
Sequence of 5-hydroxytryptamine receptor 1A (P08908 whole entry): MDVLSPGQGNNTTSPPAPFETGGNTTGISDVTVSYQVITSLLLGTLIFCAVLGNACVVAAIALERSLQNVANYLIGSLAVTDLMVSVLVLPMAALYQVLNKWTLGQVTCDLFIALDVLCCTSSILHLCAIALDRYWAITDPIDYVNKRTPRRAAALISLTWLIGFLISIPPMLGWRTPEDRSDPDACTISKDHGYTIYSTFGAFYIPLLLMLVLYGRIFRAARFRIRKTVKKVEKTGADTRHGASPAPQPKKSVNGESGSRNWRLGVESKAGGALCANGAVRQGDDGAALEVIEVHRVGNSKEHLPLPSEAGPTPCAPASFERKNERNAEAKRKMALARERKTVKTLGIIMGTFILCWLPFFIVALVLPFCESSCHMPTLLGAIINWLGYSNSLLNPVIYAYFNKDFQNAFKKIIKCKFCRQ
Sequence of Delta-type opioid receptor (P41143 whole entry): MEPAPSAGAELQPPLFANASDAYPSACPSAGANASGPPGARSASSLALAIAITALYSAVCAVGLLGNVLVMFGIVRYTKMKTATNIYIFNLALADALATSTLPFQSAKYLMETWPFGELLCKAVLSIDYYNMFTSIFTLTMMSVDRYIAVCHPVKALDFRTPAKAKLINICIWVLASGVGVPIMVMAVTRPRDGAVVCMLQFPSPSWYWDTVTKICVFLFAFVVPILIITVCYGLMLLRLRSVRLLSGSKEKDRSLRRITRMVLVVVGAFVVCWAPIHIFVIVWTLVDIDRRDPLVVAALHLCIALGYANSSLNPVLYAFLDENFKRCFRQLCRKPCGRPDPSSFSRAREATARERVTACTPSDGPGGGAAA
Sequence of Nonstructural protein 1 (Q194T2 whole entry): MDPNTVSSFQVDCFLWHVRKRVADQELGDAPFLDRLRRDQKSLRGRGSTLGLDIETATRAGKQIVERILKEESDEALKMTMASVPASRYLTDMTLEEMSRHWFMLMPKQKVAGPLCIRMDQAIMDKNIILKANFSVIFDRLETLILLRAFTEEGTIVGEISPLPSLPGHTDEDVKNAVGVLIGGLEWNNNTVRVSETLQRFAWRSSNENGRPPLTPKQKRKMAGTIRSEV
Sequence of Cyclin-dependent kinase 5/CDK5 activator 1 (Q00535 whole entry, the tested form may be a part): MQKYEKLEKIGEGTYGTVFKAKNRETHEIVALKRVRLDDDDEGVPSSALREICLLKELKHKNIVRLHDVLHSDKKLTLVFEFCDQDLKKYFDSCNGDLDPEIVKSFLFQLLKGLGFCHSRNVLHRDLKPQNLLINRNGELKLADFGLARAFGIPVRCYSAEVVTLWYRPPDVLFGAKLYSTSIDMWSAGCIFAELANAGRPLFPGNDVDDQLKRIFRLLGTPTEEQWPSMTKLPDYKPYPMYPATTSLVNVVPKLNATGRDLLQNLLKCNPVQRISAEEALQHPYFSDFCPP
Sequence of Cyclin-dependent kinase 5/CDK5 activator 1 (Q15078 whole entry, further chain, the tested form may be a part): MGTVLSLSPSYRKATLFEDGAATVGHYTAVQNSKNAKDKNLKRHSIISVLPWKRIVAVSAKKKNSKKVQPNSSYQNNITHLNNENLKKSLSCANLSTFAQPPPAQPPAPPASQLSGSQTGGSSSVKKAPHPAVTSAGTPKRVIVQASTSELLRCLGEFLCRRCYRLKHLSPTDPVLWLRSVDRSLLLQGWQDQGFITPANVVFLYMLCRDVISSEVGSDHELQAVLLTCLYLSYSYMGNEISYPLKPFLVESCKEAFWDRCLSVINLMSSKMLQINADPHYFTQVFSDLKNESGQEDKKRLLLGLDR

OCCCNc1nccc(-c2cc(Nc3cccc(Cl)c3)ncn2)n1
AC50 [1]: 2610 nM (active) | EC50 [2]: 1860 nM (active) | AC50 [3]: 418 nM (active) | AC50 [4]: 1350 nM (active) | EC50 [5]: 2330 nM (active) | AC50 [6]: < 260 nM (active) | AC50 (Paired box protein Pax-8): 2700 nM (active) | IC50 (Jurkat): 320 nM (active) | EC50 [7]: 3800 nM (active) | AC50 [8]: 2960 nM (active) | AC50 [9]: 569 nM (active) | AC50 [10]: 5080 nM (active) | AC50 [11]: 417 nM (active) | IC50 [12]: > 80000 nM (inactive) | AC50 [13]: 535 nM (active) | AC50 [14]: 2710 nM (active) | EC50 [15]: 5300 nM (active)

CCOC(=O)C1(c2ccccc2)CCN(CCC(=O)Nc2cccc(Br)c2)CC1
EC50 [16]: > 92500 nM (inactive) | EC50 [17]: 56800 nM (inactive) | EC50 (Mu-type opioid receptor): 40600 nM (inactive)

Cn1c(-c2ccccc2)cnc1SCc1nc(O)c2ccccc2n1
AC50 (Escherichia coli): 234000 nM (active) | EC50 [18]: > 50000 nM (not active)

CC(=NNC(=S)N1CCN(c2ccccn2)CC1)c1nccs1
AC50 [19]: 681 nM (active) | IC50 [20]: > 80000 nM (inactive) | AC50 [21]: 2180 nM (active) | IC50 (CHO): 110 nM (active) | AC50 (A-375): 34700 nM (active) | IC50 (Vero [22]): > 25000 nM (active) | AC50 (HEK293): 4440 nM (active) | AC50 [13]: 5180 nM (active) | CC50 (Vero [23]): 8980 nM (active) | IC50 (Nonstructural protein 1): 3380 nM (active)

Cc1cc(C)cc(C(=O)NC(CC(N)=O)c2ccc(N3CCN(c4ccccn4)CC3)c([N+](=O)[O-])c2)c1 (stereo not drawn)
EC50 [24]: 714 nM (active)
